Laboratory results taken from US20250228958A1, “TSP1 INHIBITOR” (Daiichi Sankyo Company, Limited, priority 2022, published 2025).
“Also recorded” adds a separate entry of the source. Positions of bridges follow the written chain, without caps; N, C: chain ends. Non-standard residues stand in square brackets, D forms with d. Residues, ends and D or L forms follow the SMILES beside them. Chains are numbered I, II in the order given. No end group written: not given here. *: point of attachment. X1 = COCCOCCOCCOCCOCCOCCOCCOCCOCCOCCOCC(=O)N[C@@H](CCCCN*)C(=O)NCCOCCOCCOCCOCCOCCOCCOCCOCCOCCOCCOCCOCCC(=O)NCCOCCOCCOCCOCCOCCOCCOCCOCCOCCOCCOCCOCCC(=O)N[C@@H](CCCCNC(=O)CCN1C(=O)CC(C)C1=O)C(N)=O; maleimide = maleimide-group-derived moiety in the linking group, forming a thioether bond with the thiol of a cysteine residue of the carrier molecule; KPEG = (2S)-6-amino-2-[[2-(methoxy-oligo(ethoxy))acetyl]amino]hexanoic acid (Lys with N-alpha methoxy-PEG acetyl); 2Nal = N[C@@H](Cc1ccc2ccccc2c1)C(=O)O; Gly(cPent) = N[C@H](C(=O)O)C1CCCC1; Agb = N=C(N)NCC[C@H](N)C(=O)O; Tle = CC(C)(C)[C@H](N)C(=O)O; hCys = N[C@@H](CCS)C(=O)O; P12P = not defined here

What was measured:
human TSP1 = biological target: T1, human TSP1 (Homo sapiens, UniProt P07996); assay: Cell adhesion inhibition assay (HUVEC adhesion to TSP1-coated plate); assay type: cell-based; conditions: inhibition of HUVEC adhesion to human TSP1-coated plate
T1 construct: Thrombospondin human platelet (Calbiochem, 605225); purchased Calbiochem 605225; host or cells: human platelets (natural source, not recombinant)
Description: • 384-well Low Flange Black Flat Bottom Polystyrene Not Treated Microplate (Corning, 3573) • Proteosave(registered trademark) SS 15 mL (Sumitomo Bakelite, MS-52150) • Thrombospondin human platelet (Calbiochem, 605225) • HUVEC (KURABO, KE-4109P10) • EGM-2 MV (Lonza, CC-3202): for HUVEC passaging • Collagen coated dish (IWAKI, 4020-010): for HUVEC passaging • Lipidure(registered trademark)-BL802 (NOF Corporation), 5% solution • DMEM low glucose (GIBCO, 11054-020) • Bovine serum albumin (BSA) solution 30% (Sigma A9205) • CellTiter-Glo 2.0 (Promega G9242) […]
To maintain human umbilical vein endothelial cells, HUVECs, EGM2-MV and a collagen coated dish were used (the cells were ceased to be used after 10th or 11th passage since the cell proliferation rate declined at this stage). […] After removal of supernatant, the cells were resuspended in a DMEM buffer, counted for cell number, and diluted to 6000 cells/10 μL. […]
The culture medium was removed, and the plate was washed twice with 30 L/well of HBSS/Hepes 0.5% BSA. […] Fluorescence emission was detected using EnVision Xcite Multilabel Reader (produced by Perkin Elmer).
On the basis of the measured fluorescence values, the IC50 values (nM) of the different cyclic peptides and conjugates for inhibition of cell adhesion were calculated. […]

[1] = test system: C57BL/6 mice, ischemic limb blood flow; assay: Blood flow improvement measurement tests (femoral artery/vein ligation and excision, laser Doppler); assay type: in vivo, mouse; conditions: for blood flow AUC, % of vehicle group mean: blood flow AUC from beginning to end of measurement, ratio to vehicle-treated group mean; for %, ischemia/nonischemia (blood flow on the last day of measurement): mean ± standard error, ratio of ischemic limb flow to non-ischemic limb flow
Excerpt: Six to seven-week-old C57BL/6 mice were purchased from Charles River Laboratories Japan Inc., and acclimated over six days by feeding with a FR-2 solid diet (produced by Funabashi Farm Co., Ltd.). The rearing facility switched between light and dark modes in a 12-hour cycle with light turning on at 7 a.m. and turning off at 7 p.m. Under isoflurane inhalation anaesthesia, the left thighs of the mice were dissected, and the superficial femoral arteries and veins (from just below the deep femoral arteries to the popliteal artery and vein) were ligated and excised. […] Five mice were used for each treatment group.
Blood flows were measured in ischemic (left) and non-ischemic (right) limbs using a laser Doppler perfusion imager (PeriScan PIM III, Moor LD12-HR). The improvement of blood flow was evaluated by the ratio of ischemic limb flow to non-ischemic limb flow. […] In addition, blood flow AUC was calculated to determine the ratio (%) of the mean value of the test substance-treated group to the mean value of the vehicle-treated group.

[2] = Serum stability test, human serum; assay type: in vitro ADME; conditions: both sexes, residual ratio: IS ratio at 4 hours relative to 0 hours, 37° C.
Excerpt: (§1) • Mouse serum (BALB/c CrSlc, male, Japan SLC, Inc.) • Monkey serum (cynomolgus monkey, male, Japan SLC, Inc.) • Human serum (Caucasian, pool of 5 males and 5 females, KAC Co., Ltd.) • Phenacetin (Nacalai Tesque, Inc.) • Niflumic acid (Nacalai Tesque, Inc.) • Furosemide (Nacalai Tesque, Inc.) • Acetonitrile (FUJIFILM Wako Pure Chemical Corporation) • Methanol (FUJIFILM Wako Pure Chemical Corporation) • Formic acid (FUJIFILM Wako Pure Chemical Corporation) • Dimethyl sulfoxide (DMSO) (FUJIFILM Wako Pure Chemical Corporation)
(§2) Solutions of Phenacetin, niflumic acid, and furosemide were prepared in DMSO at 10 μg/ml, 150 μg/ml, and 200 μg/ml, respectively. 10 μg/ml of phenacetin in DMSO, 150 μg/ml of niflumic acid in DMSO, and 200 μg/ml of furosemide in DMSO were dissolved in a mixture of […]/methanol (75/25, v/v) (final concentrations: phenacetin; 1 ng/mL, niflumic acid: 15 ng/mL, and furosemide 20 ng/mL), and formic acid was added to the prepared test solution (final concentration: 1% (v/v)) to prepare a formic acid-containing IS solution.
(§3) The test substances were prepared in DMSO to a concentration of 10 mM each. Further, the solution was diluted with DMSO to a concentration of 2 mM to make a test substance solution.
(§4) Each serum was preincubated at 37° C. for 5 minutes, and then the test substance solution was added to a final concentration of 20 μM to initiate the reaction. The test substance-added serum was incubated at 37° C. At 0 and 4 hours after the start of the reaction, a portion of the serum was taken out and added to the formic acid-containing IS solution to stop the reaction, which was used as a measurement sample.
(§5) The test substance and IS (phenacetin, niflumic acid, and furosemide) in the measurement sample were measured by LC-MS/MS, and the peak area ratio (IS ratio) of the test substance to IS (any of phenacetin, niflumic acid, and furosemide) was calculated.
(§6) The percentage of the IS ratio at 4 hours after the start of the reaction relative to that at 0 hours after the start of the reaction was used as a residual ratio to evaluate serum stability.

[3] = Serum stability test, mouse serum; assay type: in vitro ADME
Excerpt: as §1, §2, §3, §4, §5, §6

[4] = Serum stability test, monkey serum; assay type: in vitro ADME, cynomolgus monkey; conditions: male, residual ratio: IS ratio at 4 hours relative to 0 hours, 37° C.
Excerpt: as §1, §2, §3, §4, §5, §6

[5] = biological target: Thrombospondin human platelet (Calbiochem, 605225) (human, UniProt P07996 19-1170); assay: cell-based or functional assay
Chain of Thrombospondin human platelet (Calbiochem, 605225) (P07996 19-1170 limits assumed): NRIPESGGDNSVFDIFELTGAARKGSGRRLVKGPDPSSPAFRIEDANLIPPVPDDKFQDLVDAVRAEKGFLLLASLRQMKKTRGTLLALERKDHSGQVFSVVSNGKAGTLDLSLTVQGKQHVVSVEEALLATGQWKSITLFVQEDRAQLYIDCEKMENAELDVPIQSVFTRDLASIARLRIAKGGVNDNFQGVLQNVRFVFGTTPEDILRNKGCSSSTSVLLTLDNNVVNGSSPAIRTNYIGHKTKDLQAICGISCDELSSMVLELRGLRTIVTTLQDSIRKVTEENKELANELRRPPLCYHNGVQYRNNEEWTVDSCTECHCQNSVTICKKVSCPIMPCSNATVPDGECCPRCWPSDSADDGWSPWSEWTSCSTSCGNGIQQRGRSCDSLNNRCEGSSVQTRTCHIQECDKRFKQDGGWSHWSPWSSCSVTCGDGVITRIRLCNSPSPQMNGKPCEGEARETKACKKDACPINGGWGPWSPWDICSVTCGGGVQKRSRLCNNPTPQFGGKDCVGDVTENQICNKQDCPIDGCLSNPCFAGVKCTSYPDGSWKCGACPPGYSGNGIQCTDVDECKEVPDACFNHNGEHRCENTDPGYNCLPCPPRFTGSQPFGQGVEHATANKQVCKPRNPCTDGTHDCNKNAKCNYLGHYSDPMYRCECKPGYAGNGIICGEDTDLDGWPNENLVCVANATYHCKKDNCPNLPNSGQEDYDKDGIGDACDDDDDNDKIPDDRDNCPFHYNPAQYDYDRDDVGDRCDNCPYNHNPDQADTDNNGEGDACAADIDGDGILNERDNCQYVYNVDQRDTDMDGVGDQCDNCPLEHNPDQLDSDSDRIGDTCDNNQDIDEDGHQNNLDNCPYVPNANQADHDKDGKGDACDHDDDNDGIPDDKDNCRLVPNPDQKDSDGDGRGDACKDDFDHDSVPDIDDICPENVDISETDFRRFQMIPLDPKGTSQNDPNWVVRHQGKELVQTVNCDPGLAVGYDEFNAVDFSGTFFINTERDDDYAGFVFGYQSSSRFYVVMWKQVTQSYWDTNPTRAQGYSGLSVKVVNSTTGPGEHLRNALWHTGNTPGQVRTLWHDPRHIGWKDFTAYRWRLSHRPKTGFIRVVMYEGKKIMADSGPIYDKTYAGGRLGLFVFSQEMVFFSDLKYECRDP

T1 sequence (P07996 19-1170): as the sequence (P07996 19-1170 limits assumed) above

Molecule: CC(C)(C)[C@@H]1NC(=O)[C@H](Cc2ccc3ccccc3c2)NC(=O)CSC[C@@H](C(N)=O)NC(=O)[C@H](C2CCCC2)NC(=O)[C@H](Cc2c[nH]c3ccccc23)NC(=O)[C@H](CCCNC(=N)N)NC(=O)[C@@H]2CCSSCC[C@H](NC1=O)C(=O)NCC(=O)N[C@@H](CCCNC(=N)N)C(=O)N[C@@H](CC(N)=O)C(=O)N[C@@H](Cc1c[nH]c3ccccc13)C(=O)N2 [Peptide-8] ({CH2CO}-[2Nal][Tle][hCys]GRNW[hCys]RW[Gly(cPent)]C-NH2; disulfide 3-8; thioether N-12)
- IC50 (human TSP1): 12.6 nM

Molecule: COCCOCCOCCOCCOCCOCCOCCOCCOCCOCCOCC(=O)N[C@@H](CCCCNC(=O)[C@H](CC(=O)O)NC(=O)[C@H](CC(=O)O)NC(=O)CNC(=O)CNC(=O)CNC(=O)CNC(=O)[C@@H]1CSCC(=O)N[C@@H](Cc2ccc3ccccc3c2)C(=O)N[C@H](CCCNC(=N)N)C(=O)N[C@H]2CCSSCC[C@H](NC(=O)[C@H](Cc3c[nH]c4ccccc34)NC(=O)[C@@H](CC(=O)O)NC(=O)[C@H](CCCNC(=N)N)NC(=O)CNC2=O)C(=O)N[C@H](CCCNC(=N)N)C(=O)N[C@@H](Cc2c[nH]c3ccccc23)C(=O)N[C@@H](C2CCCC2)C(=O)N1)C(=O)NCCOCCOCCOCCOCCOCCOCCOCCOCCOCCOCCOCCOCCC(=O)NCCOCCOCCOCCOCCOCCOCCOCCOCCOCCOCCOCCOCCC(=O)N[C@@H](CCCCNC(=O)CCN1C(=O)CC(C)C1=O)C(N)=O (some centres unmarked) [Conjugate-4] ({CH2CO}-[2Nal][dR][hCys]GR[dD]W[hCys][dR]W[Gly(cPent)]CGGGGDD-X1; disulfide 3-8; thioether N-12)
- blood flow AUC, % of vehicle group mean ([1]; 0.3 mg/kg): 263.9%
- %, ischemia/nonischemia (blood flow on the last day of measurement) ([1]; 0.3 mg/kg): 54.5 ± 10.2%
- blood flow AUC, % of vehicle group mean ([1]; 1 mg/kg): 346.8%
- %, ischemia/nonischemia (blood flow on the last day of measurement) ([1]; 1 mg/kg): 76.1 ± 11.2%

Molecule: N=C(N)NCCC[C@@H]1NC(=O)[C@H](Cc2ccc3ccccc3c2)NC(=O)CSC[C@@H](C(N)=O)NC(=O)[C@H](C2CCCC2)NC(=O)[C@H](Cc2c[nH]c3ccccc23)NC(=O)[C@H](CCCNC(=N)N)NC(=O)[C@@H]2CCSSCC[C@H](NC1=O)C(=O)NCC(=O)N[C@@H](CCNC(=N)N)C(=O)N[C@@H](CC(N)=O)C(=O)N[C@@H](Cc1c[nH]c3ccccc13)C(=O)N2 [Peptide-1] ({CH2CO}-[2Nal]R[hCys]G[Agb]NW[hCys]RW[Gly(cPent)]C-NH2; disulfide 3-8; thioether N-12)
- remaining at 4 h, 20 μM [2]: 93.9%
- IC50 (human TSP1): 12.6 nM
- remaining at 4 h, 20 μM ([3]; male, BALB/c CrSlc, mouse, mouse serum, residual ratio: IS ratio at 4 hours relative to 0 hours, 20 μM, 37° C.): 101%
- serum stability (in words) ([3]; statement covers mouse, monkey and human serum, 4 hours): high serum stability; also recorded: higher serum stability
- remaining at 4 h, 20 μM [4]: 90.6%

B1: Conjugate-10 (other)
peptide: [2Nal]R[hCys]GRDW[hCys]RW[Gly(cPent)]CGSGSDD[KPEG][P12P][P12P]K(maleimide)-NH2
chain: DKTHTCPPCPAPEAAGGPSVFLFPPKPKDTLMISRTPEVTCVVVDVSHEDPEVKFNWYVDGVEVHNAKTKPREEQYNSTYRVVSVLTVLHQDWLNGKEYKCKVSNKALAAPIEKTISKAKGQPREPQVYTLPPSREEMTKNQVSLTCLVKGFYPSDIAVEWESNGQPENNYKTTPPVLDSDGSFFLYSKLTVDKSRWQQGNVFSCSVMHEALHNHYTQKSLSLSPGK
modifications: disulfide I:3-I:8; not fully specified; reading uncertain; also: Lys22 maleimide side chain thioether-linked to Fc hinge Cys6 and Cys9 (Eu 226, 229), thioether at chain A 1 at chain A 12 to a chain's N-terminus
- IC50 for inhibition of cell adhesion (HUVEC to coated human TSP1) [5]: 12.8 nM
